# In patent US20030162759A1, “Aldosterone blocker therapy to prevent or treat inflammation-related disorders” (priority 2000, published 2003):
# Where “and” joins values, the source holds several entries; their conditions need not be identical. Equal entries are not always repeated.
# Experiments:
# Type in all cases: in vivo, rat
# Collagen I = assay: Assay C: Collagen I mRNA in left ventricle (TaqMan); details: for Collagen type-I message: 30 days, compared to vehicle+salt controls; for Collagen-I mRNA: individual rats
# Method: The procedure of Assay B was expanded upon in a further study. […] Myocardial tissue from animals in each treatment group was examined after 7, 14, or 30 days of treatment.
# Potassium chloride supplementation was added to the saline solution in order to prevent the potential hypokalemia associated with aldosterone excess.
# At the time of the surgery, an Alzet 2002 osmotic minipump (Alza Corp., Palo Alto, Calif.) containing either vehicle (9% ethanol/87% propylene glycol/4% dH2O) or 1.0 mg/mL d-aldosterone (Sigma Chemical, St. Louis, Mo.) was inserted subcutaneously at the nape of the neck. Aldosterone was administered at a dose of 0.75 g/hour. […] Animals were sacrificed from each group (n=8-13) after 7, 14, or 30 days of treatment.
# Following exsanguination, hearts and kidneys were isolated, removed, rinsed in cold phosphate-buffered saline, and blotted dry. Kidneys were immediately bifurcated through the long axis with a razor blade and placed in 10% neutral buffered formalin (NBF, Richard-Allen Scientific, Kalamazoo, Mich.). For the hearts, the right ventricle (RV) was cut away from the left ventricle (LV), both ventricles were weighed using a Mettler AE163 balance (Mettler-Toledo, Inc., Hightstown, N.J.), and the RV was placed in 10% NBF. A 2 mm coronal slab of the LV apex was removed and frozen with dry ice/isopentane for analysis of gene expression and the remaining portion of the LV was placed in 10% NBF for fixation. Final wet trimming was completed after 3-4 days fixation where a second 2 mm coronal slab was removed for hydroxyproline analysis and a third 2 mm slab was removed from the equatorial region for histology.
# The fluorogenic 5′-nuclease assay (TaqMan PCR) using Applied Biosystems' 7700 Sequence Detection System (Applied Biosystems, Foster City, Calif.) allowed for real time detection/quantitation of a specific gene by monitoring the increase in fluorescence of a gene-specific, dye-labeled oligonucleotide probe. Probes for target and reference genes were labeled at the 5′-end with a 6-carboxyfluorescein (6FAM) reporter dye and at the 3′-end with a 6-carboxy-N,N,N′,N′-tetramethylrhodamine (TAMRA) quencher dye. When the probe was annealed to the target gene, fluorescence of 6FAM was prevented by the close proximity of TAMRA. The exonuclease activity of Taq polymerase released the dyes from the oligonucleotide probe by displacing the probe from the target sequence resulting in fluorescence excitation in direct proportion to the amount of target message present. Data analysis was performed using the Sequence Detection System software from Applied Biosystems.
# Primers and probes were designed using Oligo Primer Analysis Software, Version 5.0 (National Biosciences Inc. (NBI)-Wojciech Rychlik, Cascade, Colo.). Primers were synthesized by Life Technologies (Grand Island, N.Y.) and probes were synthesized by Applied Biosystems. Primer/probe sets were designed from known sequences of rat genes to be analyzed. All target gene values were normalized to a reference gene, constitutively expressed cyclophilin. Primer/probe sets sequences can be found in Table 8
# RNA was extracted from frozen (−70° C.) left ventricle (LV) tissue (approximately 10-20 mg) using 1.5 mL RNA-STAT 60 according to manufacturer's instructions (Leedo Medical Laboratories, Inc., Houston, Tex.). Briefly, tissues were homogenized using a tissue homogenizer equipped with a 5 mm probe (Ultra-Turrax T8 Homogenizer, IKA Works, Inc. Wilmington, N.C.). Following homogenization, an equal volume of molecular grade chloroform (Sigma Chemical Co., St. Louis, Mo.) was incubated with periodic mixing for 10 min at room temperature. Samples were centrifuged at 12,000 g for 10 min and RNA was precipitated from the top layer by adding an equal volume of molecular grade isopropanol (Sigma Chemical Co.) followed by an overnight incubation at −80° C.
# osteopontin [1] = assay: Assay A angiotensin II infusion model: osteopontin immunostaining of hearts; details: angiotensin II infused, saline-drinking rats; eplerenone 100 mpk
# Method: Male Wistar rats (n—50, 10/group; BW=200 g)
# 2. Angiotensin 11 (25 ng/min, sc via aizet minipump)
# Osteopontin (also known as early T-cell activation-1, Eta-1) is a secreted glycoprotein with pro-inflammatory characteristics that mediates chemoattraction, activation and migration of monocytes.
# aldosterone infused rats = assay: Assay B aldosterone infusion model: myocardial fibrosis (interstitial collagen volume fraction, hydroxyproline); details: aldosterone/salt treatment, 4 weeks
# Method: Assay B: In vivo Aldosterone Infusion Model Male Sprague Dawley rats (n=39; BW=250 g) […] Uni-nephrectomy performed during implantation of mini-pumps 2. Aldosterone (0.75 mg/hr, sc via aizet minipump) 2. […] 1. […] Sacrifice after 4 weeks. Hearts were stained with hematoxylin&eosin and the collagen specific dye picro-sirius red and were analyzed for determination of interstitial collagen volume fraction and morphologic abnormalities (i.e. necrosis, vascular injury). Hydroxyproline concentration was measured in the frozen hearts.
# COX-2 = assay: Assay B aldosterone infusion model: COX-2 mRNA in heart by quantitative RT-PCR (Taqman)
# Method: Assay B: In vivo Aldosterone Infusion Model Male Sprague Dawley rats (n=39; BW=250 g) […] Uni-nephrectomy performed during implantation of mini-pumps […] Aldosterone ([…], sc via aizet minipump) […] 1. […] Sacrifice after 4 weeks. Hearts were harvested and divided by half through a transverse section at the mid-ventricles: The upper half was stored into formalin. The bottom part was snap-frozen in liquid nitrogen for biochemical analysis. Determination of osteopontin and COX-2 was performed by quantitative RT-PCR (Taqman). Osteopontin was also identified in the heart by immunohistochemistry.
# osteopontin [2] = assay: Assay B aldosterone infusion model: serum (circulating) osteopontin at 28 days; details: NaCl 1% drinking rats with aldosterone and eplerenone
# Method: Assay B: In vivo Aldosterone Infusion Model Male Sprague Dawley rats (n=39; BW=250 g) […] Uni-nephrectomy performed during implantation of mini-pumps 2. Aldosterone ([…], sc via aizet minipump) 2. […] Sacrifice after 4 weeks.
Structure (SMILES),Collagen type-I message (Collagen I),"Collagen-I mRNA (Collagen I; Table 9.14, 7-day protocol, listed as Aldosterone + salt)","Collagen-I mRNA (Collagen I; 14 days of treatment, relative to cyclophilin expression, listed as Aldosterone + salt)","Collagen-I mRNA (Collagen I; 30 days of treatment, relative to cyclophilin expression, listed as Aldosterone + salt) [AU]","Collagen-I (collagen type I mRNA) (Collagen I; mean ± SEM after 14 days of treatment, relative to cyclophilin expression) [AU]",Osteopontin expression in the heart (immunostaining) (osteopontin [1]),"Myocardial fibrosis (interstitial collagen volume fraction, hydroxyproline concentration) (aldosterone infused rats)","Collagen-I mRNA, Mean (Collagen I; group mean, 30 days of treatment) [AU]","Collagen-I mRNA (Collagen I; 14 days of treatment, relative to cyclophilin expression, listed as Eplerenone + aldosterone + salt)","Collagen-I mRNA (Collagen I; 30 days of treatment, relative to cyclophilin expression, listed as Eplerenone + aldosterone + salt)","Collagen-I (collagen type I mRNA) (Collagen I; mean ± SEM after 7 days of treatment, relative to cyclophilin expression) [AU]",COX-2 upregulation in myocardium (COX-2; aldosterone infused rats (FIG. 31)),"COX-2 relative mRNA expression (COX-2; heart, quantitative RT-PCR, aldosterone/salt rats, 4 weeks, eplerenone 100 mpk p.o.)",Circulating (serum) osteopontin levels (osteopontin [2])
C[C@]12CCC(=O)C=C1CC[C@@H]1[C@@H]2[C@@H](O)C[C@]2(C=O)[C@@H](C(=O)CO)CC[C@@H]12 [aldosterone],modest increase,0.84 AU and 1.40 AU,0.25 AU and 1.00 AU and 1.20 AU and 1.70 AU and 0.43 AU,2.20,1.33 ± 0.24,restored osteopontin expression,absence of myocardial fibrosis,–,–,–,–,–,–,–
"COC(=O)[C@@H]1CC2=CC(=O)CC[C@]2(C)[C@@]23O[C@@H]2C[C@@]2(C)[C@@H](CC[C@@]24CCC(=O)O4)[C@H]13 [eplerenone, Pregn-4-ene-7,21-dicarboxylic acid, 9,11-epoxy-17-hydroxy-3-oxo-, γ-lactone, methyl ester, (7α, 11α, 17β) -]",modest increase,–,–,–,–,prevented osteopontin expression,–,2.53,0.90 AU and 1.14 AU and 0.50 AU,2.98 AU and 2.90 AU,0.85 ± 0.15,prevention by eplerenone of COX-2 upregulation,1.8±0.36,marked decrease in circulating osteopontin levels
